Source: ChEMBL document CHEMBL5120946, “Bivalent BET Bromodomain Inhibitors Confer Increased Potency and Selectivity for BRDT via Protein Conformational Plasticity” (J Med Chem, 2022)

What was measured:
[1] = biological target: T1, Bromodomain-containing protein 4 (Homo sapiens, UniProt O60885); assay: Inhibition of recombinant human BRD4-1 (44 to 168 residues) expressed in bacterial expression system by bromoscan assay
[2] = biological target: T2, Bromodomain testis-specific protein (Homo sapiens, UniProt Q58F21); assay: Inhibition of recombinant human BRDT-1 (21 to 137 residues) expressed in bacterial expression system by bromoscan assay
MM1.S = assay: Growth inhibition of human MM1.S cells incubated for 72 hrs by CellTiter-Blue assay; assay type: functional, cell-based
[3] = biological target: T1, Bromodomain-containing protein 4; assay: Inhibition of BRD4 in human MM1.S cells assessed as reduction in c-MYC level after 6 hrs by Western blot analysis; assay type: cell-based
[4] = biological target: T1, Bromodomain-containing protein 4; assay: Inhibition of recombinant human BRD4-2 (333 to 460 residues) expressed in bacterial expression system by bromoscan assay
[5] = biological target: T1, Bromodomain-containing protein 4; assay: Binding affinity to BRD4-T (unknown origin)
[6] = biological target: T2, Bromodomain testis-specific protein; assay: Inhibition of recombinant human BRDT-2 (250 to 382 residues) expressed in bacterial expression system by bromoscan assay
[7] = biological target: T2, Bromodomain testis-specific protein; assay: Binding affinity to N-terminal hexa-histidine tagged BRDT-T (2 to 416 residues) (unknown origin) expressed in Escherichia coli BL21(DE3) cells
Homo sapiens = species: Homo sapiens; assay: Selectivity ratio of Kd for BRD4 (unknown origin) to Kd for BRDT (unknown origin)
[8] = Metabolic stability in pooled mouse liver microsomes assessed as half life; assay type: ADME, Microsome; details: for t1/2: microsomes; for half-life: pooled mouse liver microsomes
[9] = Metabolic stability in pooled human liver microsomes assessed as half life; assay type: ADME, Microsome; details: for half-life: pooled human liver microsomes; for t1/2: microsomes
[10] = Permeability in MDCK-MDR1 cells; assay type: ADME, cell-based, Canis lupus familiaris; details: dog; for Papp: MDCK-MDR1, read-out: permeability

Structure (SMILES)	Kd [1]	Kd [2]	IC50 (MM1.S)	IC50 [3]	Kd [4]	Kd [5]	Kd [6]	Kd [7]	Selectivity ratio (Homo sapiens)	half-life [9]	half-life [8]	Papp [10]	permeability ([10]; mdck-mdr1)	t1/2 [8]	t1/2 [9]
Cn1cc(-c2cccc(N3CCCC3=O)c2)c2ccccc2c1=O	335 nM	875 nM	58 nM	> 1000 nM											
CCS(=O)(=O)Nc1cccc(-c2cn(C)c(=O)c3ccccc23)c1		77 nM								< 2.3 min	< 2.3 min	0.13 ×10⁻⁶ cm/s			
Cc1cnc(Nc2ccc(C(=O)NC3CCN(C)CC3)c(F)c2)nc1Nc1ccc(Cl)c(NS(=O)(=O)C(C)(C)C)c1		9.5 nM	61 nM		20 nM	6.7 nM	25 nM	18 nM							
CCS(=O)(=O)Nc1ccc(Oc2ccc(Cl)cc2)c(-c2cn(C)c(=O)c3ccccc23)c1	3.6 nM	5 nM	8.5 nM		3.7 nM	2.3 nM	12 nM	6 nM					2.7 10^-6 cm/s	74 min	299 min
Cc1cnc(Nc2ccc(C(=O)NC3CCN(C(=O)CCOCCOCCOCCOCCC(=O)N4CCC(NC(=O)c5ccc(Nc6ncc(C)c(Nc7ccc(Cl)c(NS(=O)(=O)C(C)(C)C)c7)n6)cc5F)CC4)CC3)c(F)c2)nc1Nc1ccc(Cl)c(NS(=O)(=O)C(C)(C)C)c1	6.4 nM	0.92 nM	34 nM		3 nM	2.8 nM	1.7 nM	1.55 nM						4.1 min	5.6 min
Cc1cnc(Nc2ccc(C(=O)NC3CCN(C(=O)CCOCCOCCOCCOCCOCCC(=O)N4CCC(NC(=O)c5ccc(Nc6ncc(C)c(Nc7ccc(Cl)c(NS(=O)(=O)C(C)(C)C)c7)n6)cc5F)CC4)CC3)c(F)c2)nc1Nc1ccc(Cl)c(NS(=O)(=O)C(C)(C)C)c1	4.6 nM	0.6 nM	30 nM		1.5 nM	1.6 nM	2.2 nM	0.8 nM						30 min	10 min

Further compounds by falling Kd [2], results first:

Kd [1]	Kd [2]	IC50 (MM1.S)	IC50 [3]	Kd [4]	Kd [5]	Kd [6]	Kd [7]	Selectivity ratio (Homo sapiens)	half-life [9]	half-life [8]	Papp [10]	permeability ([10]; mdck-mdr1)	Structure (SMILES)	t1/2 [8]	t1/2 [9]
4 nM	0.84 nM	44 nM		3.1 nM	3.6 nM	3.5 nM	0.59 nM						Cc1cnc(Nc2ccc(C(=O)NC3CCN(C(=O)COCCOCC(=O)N4CCC(NC(=O)c5ccc(Nc6ncc(C)c(Nc7ccc(Cl)c(NS(=O)(=O)C(C)(C)C)c7)n6)cc5F)CC4)CC3)c(F)c2)nc1Nc1ccc(Cl)c(NS(=O)(=O)C(C)(C)C)c1		
28 nM	0.6 nM	59 nM		9.1 nM	4.8 nM	8.4 nM	2.6 nM						Cc1cnc(Nc2ccc(C(=O)NC3CCN(C(=O)COCCOCCOCC(=O)N4CCC(NC(=O)c5ccc(Nc6ncc(C)c(Nc7ccc(Cl)c(NS(=O)(=O)C(C)(C)C)c7)n6)cc5F)CC4)CC3)c(F)c2)nc1Nc1ccc(Cl)c(NS(=O)(=O)C(C)(C)C)c1		
6 nM	0.16 nM	1100 nM		3.2 nM	1.7 nM	3.1 nM	1.3 nM	12	2.2 min				Cc1cnc(Nc2ccc(C(=O)NC3CCNCC3)c(F)c2)nc1Nc1cc(NS(=O)(=O)C(C)(C)C)cc(C(=O)NCCOCCOCCOCCC(=O)N2CCC(NC(=O)c3ccc(Nc4ncc(C)c(Nc5ccc(Cl)c(NS(=O)(=O)C(C)(C)C)c5)n4)cc3F)CC2)c1	55 min	
0.095 nM	0.089 nM			0.32 nM	0.29 nM	5.5 nM	0.058 nM		315 min	11 min	15 ×10⁻⁶ cm/s		CCS(=O)(=O)Nc1ccc(OCCOCCOCCOCCOc2ccc(NS(=O)(=O)CC)cc2-c2cn(C)c(=O)c3ccccc23)c(-c2cn(C)c(=O)c3ccccc23)c1		
